The subject of data set [1] is primary macrophages. As to the kind of experiment: Cell viability of treated primary macrophages. Particulars: macrophages under treatment (data not shown). The class given is cell-based, human. The procedure:
To generate monocyte derived macrophages (MDMs), monocytes were isolated using CD14 microbeads (catalog no. 130-050-201; Miltenyi) and cultured in X-VIVO10 medium (Lonza) supplemented with GM-CSF 1000 U/ml and M-CSF 100 ng/ml for 6 days. Monocytes were seeded at a cell count of 50,000 cells per well in a 96 well plate. After 6 days medium was replaced with X-VIVO10 w/o Cytokines. After 2 days Macrophages were treated with Compound 22 and/or its N-glucuronide metabolite o/n and next day infected with Yu-2 virus for 6 hrs, washed with PBS and cultured in medium containing the compounds for 12 days. Supernatant for p24 Elisa was collected 2 times a week.

Data set [2] relates to PBMCs. Kind of data set: Lymphocyte populations in treated PBMCs. The class given is cell-based, human. Particulars: PBMCs under treatment.
Data set [3] concerns HIV-1 strains (clade B, clade C and recombinants clades). As to the kind of experiment: p24 inhibition in PBMCs infected with different HIV-1 strains (patient isolates). The class given is cell-based. Particulars: 5 μM, 6 days pi, subtype B, C and recombinant viruses. The procedure: FIG. 2. HIV p24 inhibition of Compound 22 from different HIV-1 strains. A) Different HIV-1 strains (clade B, clade C and recombinants clades) were used to infect PBMCs from three different donors in the absence of presence of 5 μM of Compound 22. Supernatant was harvested 6 days pi and viral capsid protein p24 antigen was quantitated using standard ELISA protocol.

Data set [4] has as its system HIV-1. The procedure:
Resistance to Compound 22 was tested on human PBMCs and compared to current therapies. […] Various classes of antiviral agents can affect the life cycle of HIV-1 in different manners. […] The selection of drug resistant mutants in vitro can be readily accomplished by maintaining the virus in a state of sub-optimal growth, regulated by slowly increasing the amount of drug pressure applied. This technique mimics the consequences of drug therapy in patients. Therefore, in this way, novel compounds can be assessed for their selection profile in order to evaluate the likelihood of emergence of HIV-1 drug resistance in future clinical trials. In addition, combinations of drugs can be investigated in the same manner.

For data set [5], the system named is JRCSF HIV-1 strain. As to the kind of experiment: Reconstituted SCID mice infected with JRCSF HIV-1 strain. The class given is in vivo, mouse. The procedure: FIG. 3. Efficacy of Compound 22 to inhibit viral replication in humanized mice. A) Reconstituted SCID mice were infected with JRCSF HIV-1 strain by intraperitoneal injection. Control group received by gavage labrafil and 5% DMSO (n=15) and treated group 20 mg/kg b.i.d of Compound 22 in labrafil and 5% DMSO (n=14) for 15 days. Two independent experiments were performed with 5 and 10 reconstituted mice for each group. Viral load was assessed by measuring viral RNA using the Amplicor HIV-1 Monitor from Roche. B) FACS analysis was performed on peritoneal wash at day 15 post-treatment to assess the CD8/CD4 ratio. C) Engrafted NSG humanized mice were treated by oral gavage with Compound 22 at either 20 mg or 40 mg/kg once a day for 30 days and indicated lymphocyte populations (CD45+; CD4+ and CD8+) were monitored by FACS analysis. D) NSG humanized mice were infected with the YU2 HIV-1 virus and treated either by oral gavage with Compound 22 at 40 mg/kg once a day for 30 days or by HAART (3TC-Tenofovir-Raltegravir and AZT). […] Viral load was assessed by measuring viral RNA using the Amplicor HIV-1 Monitor from Roche. […]
Briefly, TCID50 (tissue culture infectious dose 50%) was determined by infecting human CD8+ T-cell-depleted peripheral blood mononuclear cells (PBMCs) from three donors which were stimulated by addition of IL-2, PHA and anti-CD3 beads (Dynal 11131D, Life Technologies). […] HIV RNA plasma levels were measured by RT-PCR (Amplicor HIV-1 test or AmpliPrep/COBAS TaqMan HIV-1 Test, Roche) at various times after infection.
Cell suspensions were labeled with anti-human monoclonal antibodies (mAb) targeting the following cell-surface markers: CD45-FITC, CD3-PE, CD4-Pe Cy7, CD8-BV421 and CD19-APC (all from Biolegend). Washing and reagent dilutions were done with FACS buffer (PBS containing 2% fetal calf serum and 0.05% sodium azide (NaN3). All acquisitions were performed on a Cyan ADP (Beckman Coulter) flow cytometer. Data were analyzed with FlowJo software (Ashland, Oreg.). Cellular debris and dead cells were excluded by their light-scattering characteristics.

The subject of data set [6] is YU2 HIV-1 virus. As to the kind of experiment: NSG humanized mice infected with YU2 HIV-1 virus, viral load. The class given is in vivo, mouse.
Method: All manipulations of NSG-HIS mice were performed under laminar flow. Gavage of mice was performed daily with a stainless steel gavage needle (Straight 22 Gauge, 1.4 inch in length). […] Mice were monitored three times a week for symptoms or signs of adverse events, according to a standard score sheet.
Mice were infected intraperitoneally i.p. with JR-CSF, 1×10^3 TCID50 per mouse and HIV YU-2, 1×106 TCID50 per mouse. HIV RNA plasma levels were measured by RT-PCR (Amplicor HIV-1 test or AmpliPrep/COBAS TaqMan HIV-1 Test, Roche) at various times after infection.
Data set [7] deals with alternative splicing events of endogenous genes. As to the kind of experiment: RT-PCR analysis of global alternative splicing events in PBMC samples. The class given is cell-based, human. From the text:
Quantification of non-viral RNA splicing is achieved using the protocols detailed in […] et al. (Multiple alternative splicing markers for ovarian cancer. Cancer Res. 68, 657-663 (2008)) and Venables et al. (Cancer-associated regulation of alternative splicing. Nat. Struct. Mol. Biol. 16, 670-676 (2009)). […] These 382 alternative splicing events (ASEs) represent a high throughput random snapshot of global alterations of alternative splicing. We performed high throughput PCR analysis of these (essentially random) 382 ASEs on multiple PBMC samples, either from untreated (cells) or treated with DMSO, Compound 22 or with the control antiviral drug (Darunavir). Analysis of the data allowed further stringent quality controls; ASEs were only considered if >75% of the products ran at the expected mobilities (i.e. if the reactions were pure) and if total expected PCR concentration was higher than 20 nM (i.e. if the reactions were strong) which led to 264 remaining ASEs.

Data set [8] concerns resistant mutants of NL4.3 strain (K103N, K65R and M184V). The following applies: human PBMCs, NL4.3 mutants K103N.
[9] abbreviates: 20 mg/kg twice a day, FACS at day 15.

As for `FC(F)(F)Oc1ccc(Nc2ccc3cccc(Cl)c3n2)cc1` [Compound 22, 8-chloro-N-(4-(trifluoromethoxy)phenyl)quinolin-2-amine], the cell viability entry in data set [1] is recorded as “not decreased”. Also, the “populations of lymphocytes present in PBMCs” value in data set [2] was “did not alter”. Also, the “inhibitory effect on HIV-1 subtypes (p24)” value in data set [3] is “strong inhibitory effect”. In addition, the genotoxicity result in data set [4] (conclusion drawn from the mutation selection results) is “not genotoxic”. For the same compound, in data set [4] (human PBMCs, increasing drug pressure), the “Time of Selection (weeks)” value is reported as 24 weeks. The “resistance-inducing mutations detected after treatment” value in data set [4] (treatment for at least 24 weeks) is reported as “no resistance-inducing mutations detected”. Also, in data set [5] (20 mg/kg twice a day oral gavage, 15 days of treatment), the “viral load (viral RNA)” value was “significantly reduce the viral load”. Besides, in data set [5] (setting [9]), the “CD8+/CD4+ ratio” value was “restores CD8+/CD4+ ratio back to that of non-infected mice” and the “depletion of CD4+ cells following infection” value is on record as “prevents depletion of CD4+ cells”. Moreover, the “viral load during treatment” value in data set [6] (40 mg/kg daily, 30 days of treatment) was “reduced the viral load”. For the same compound, the “time the viral load remained low after treatment termination” value in data set [6] (after 30 days of treatment) is “at least 50 days”. For the same compound, in data set [7], the “global effect on pre-mRNA splicing” value is “no global effect”. Moreover, the “inhibition of replication of viral strains harbouring resistance mutations (RT activity)” value in data set [8] was “very efficiently inhibits”.

The values are drawn from patent publication US10806729B2, “Quinoline derivatives for use in the treatment or prevention of viral infection” (ABIVAX, priority 2015, dated 2020).
